Laboratory results published in US11517588B2, “Nanoparticle, preparation process and uses thereof” (National Tsing Hua University, priority 2019, dated 2022).

Experiments:
[1] = tested on: orthotopic HCA-1 HCC tumors; experiment: Tissue distribution of DNIC and NO release in tumors; design: species or system C3H mice; details: mouse, in vivo, iv
Description: ID/g, injected dose per gram. *P=0.0159 compared to Free DNIC. […] Next, NBD-labeled DNIC was used to track the intracellular delivery of free DNIC and NanoNO, and the NO-specific fluorescence probe DAR-1 was used to assess the penetration of NO released from free DNIC and NanoNO in HCC. In FIG. 4F, microphotographs of HCC tumors show DNIC uptake (green) and NO release (red) four hours after intravenous administration of NBD-DNIC loaded in NanoNO or free-form NBD-DNIC (7.5 mg/kg) to mice. 4',6-diamidino-2-phenylindole (DAPI, a fluorescent dye capable of binding strongly to DNA), blue. Scale bar, 50 μm. The experiments were repeated twice independently. […] NO release (red) was detected using DAR-1 in tumors four hours after intravenous administration of NanoNO or free-form DNIC (10 mg/kg) in mice. The arrowheads indicate perivascular NO gradients. Scale bar, 20 μm. The release of NO was imaged and quantified with a Zeiss LSM 780 confocal microscope (n=7 section images from four mice). The experiments were repeated twice independently. The procedure of distribution of NO in the tumor area was as follows. […] Four hours after administration, mice were sacrificed. Tumor tissues were embedded in Tissue-Tek (OCT compound) and immediately frozen in liquid nitrogen. Tumor tissue was sectioned (10 μm thick) onto slides. […]

[2] = Cumulative release of NO, DAR-1 fluorescence probe; assay type: physicochemical; details: PBS pH 7.4, 37° C.
Description: The cumulative release of NO from NanoNO over time was assessed using an NO-specific 4,5-diamino-N,N,N′,N′-tetraethylrhodamine (DAR-1) fluorescence probe.
The release profile of NO from free DNIC or NanoNO was investigated at pH 7.4 at 37° C. Briefly, free DNIC and NanoNO were suspended with PBS buffer. DAR-1 at a final concentration of 20 μM was added to the solution and then incubated at 37° C. on a 200 rpm orbital shaker. At different time points, the solution was harvested, and the fluorescence intensity (excitation at 560 nm, emission at 595 nm) was measured using a microplate reader (Spark 10M, Tecan, Germany).
FIG. 3 is a data diagram of the effect of NanoNO on the cumulative release of nitric oxide. NO release from free-form DNIC and NanoNO under physiological conditions (pH of 7.4). Free-form DNIC and NanoNO were incubated in PBS buffer at pH 7.4, and the release of NO was measured as the fluorescence intensity (excitation at 560 nm and emission at 595 nm) of the NO-specific probe DAR-1. The results are expressed as a fold change compared to time 0 (free DNIC, n=5; NanoNO; n=4 independent samples). *P=0.0159 compared to free DNIC. FL: fluorescence intensity.

HCA-1 cells [3] = experiment: EMT phenotype under hypoxic conditions, qRT-PCR; assay type: cell-based, murine; details: hypoxic conditions (1% oxygen), 24 h, dose-dependent manner
Description: The mRNA level was determined by qRT-PCR 24 h after treatment with free DNIC at different doses (control and hypoxia, n=3; 0.5 and 1 μM DNIC, n=5; 5 μM DNIC, n=6 biologically independent samples).

[4] = mouse, in vivo, iv
Description: The pharmacokinetics and biodistribution of NanoNO in orthotopic murine HCC models generated using HCA-1 were evaluated.
The procedure of pharmacokinetic and tissue distribution study was as follows. C3H/HeNCrNarl male mice with orthotopic implants of HCA-1 cells were injected intravenously with free DNIC (10 mg/kg) or NanoNO (7.5 mg/kg). At different time points, 200 μL of blood was collected from the orbital sinus and mixed with 50 μL of 1000 U/mL heparin (Sigma, USA). For evaluation of tissue distribution, four hours after administration, the mice were sacrificed. The tissues were collected and homogenized in lysis buffer (10 mM Tris-HCl, 1% Triton X-100, 0.1% SDS, 0.1% SDC and 140 mM NaCl). The tissue lysates were kept on ice for 30 min and centrifuged at 25,001 rcf at 4° C. for 30 min, and the supernatants were collected. The DNIC signal was measured by electron paramagnetic resonance (EPR plus, Bruker, Germany). HSCH2CH2OH (1 mM) was added to the serum or tissue lysates to transform all the DNICs into the EPR-active form for analysis. The DNIC concentration was calculated according to a standard curve obtained by the amounts of DNIC or NanoNO.
Non-compartmental analysis was employed for the pharmacokinetic parameter analysis. AUC, area under the curve; CL, clearance; h, hour; t1/2, half-life; Vss, steady state volume of distribution.

SP1 = SP1 luciferase reporter; assay type: cell-based, murine; details: free-form DNIC 0.5 μM, 24 h, HCA-1 cells
Description: The procedure of DNIC triggered activation of SP1 in HCA-1 HCC cells was as follows. HCA-1 cells expressing SP1 reporter (Qiagen, Germany) were established by transfection using Lipofectamine® 2000 (Thermo Fisher Scientific, USA). The cells were then treated with free-form DNIC. After 24 h incubated, the cells were lysed and luciferase signal was measured by microplate reader (Spark 10M, Tecan, Germany).
Data are pooled from two independent experiments. […] Analysis was performed using two-tailed Mann-Whitney U test.

[5] = pH 7.4
Description: Free DNIC and NanoNO were suspended with PBS buffer or acetic buffer (pH 4.0 or 5.5) and then incubated at 37° C. in a 200 rpm Orbital Shaker. At different time points, the solution was harvested, dissolved in DMSO and analysed by a UV spectrophotometer at 360 nm.
The kinetic profile for the decomposition of DNIC and the concomitant release of NO from NanoNO were evaluated under physiological and acidic pH conditions at 37° C. […] Free-form DNIC and NanoNO were incubated in a PBS buffer or acetic buffer at a pH of 4.0-7.4, and DNIC destruction was measured using a UV spectrophotometer at 360 nm (n=5 independent samples). The results are expressed as percentage of the initial DNIC. **P=0.0094 and ***P=0.0004 compared to NanoNO at a pH of 7.4.
Free-form DNIC and NanoNO were incubated in PBS containing 10% fetal bovine serum at 37° C. DNIC destruction was measured using a UV spectrophotometer at 360 nm. The results are expressed as the percentage of the initial DNIC (n=3 samples). All data are shown as the mean value± the s.e.m.

PD-L1 = PD-L1 mRNA and protein expression in HCC cells in vitro; assay type: cell-based, murine and human; details: dose-dependent manner
Description: The procedure of Western blot analysis was as follows. Cells or tissue were lysed in RIPA lysis buffer. Cell lysates were separated on a 10% acrylamide gel and transferred to a PVDF membrane. Membranes were blocked for 1 h in 5% skim milk and then incubated overnight with polyclonal antibodies against PD-L1 and R-actin (clone 122M4782, Cell Signaling, Danvers, Mass.).
FIG. 6F is a data diagram showing reprogramming of tumor microenvironment by NanoNO. FIG. 6G is a Western blot staining diagram showing reprogramming of tumor microenvironment by NanoNO. PD-L1 mRNA and protein expression in HCA-1 cells was analysed by qRT-PCR (n=3 biologically independent samples) (FIG. 6F) and Western blot analysis (FIG. 6G) After treatment with free-form DNIC in vitro. The experiments were repeated twice independently.

HCA-1 cells [6] = experiment: Invasion and wound healing assays; assay type: cell-based, murine; details: 72 h after treatment
Description: The procedure of transwell invasion assay was as follows. Cell invasion was examined using a QCM ECMatrix 24-well Cell Invasion Assay (EMD Millipore, USA). HCA-1 cells were seeded in the top chamber without serum. DMEM-H containing 10% FBS was added to the lower chamber. Following incubation for 72 h, the cells on the lower surface were fixed with 4% paraformaldehyde (PFA, in PBS). The chambers were rinsed in PBS and stained with 1% crystal violet (in 90% ethanol) for 30 min. For each experimental condition, 10 image fields were photographed by microscopy (IX83, Olympus, Japan) and quantified.
FIGS. 7A and 7B show free-form DNIC modulates the TME in metastatic lesions and suppresses metastatic progression of HCC. 7A-7B, Invasion (7A) and wound healing assays (7B) of HCA-1 cells were performed 72 h after treatment with free DNIC at different doses. The experiments were repeated twice independently.

Macrophage = Macrophage polarization after treatment of DNIC in vitro (qPCR); assay type: cell-based, human
Text: The murine hepatocellular carcinoma (HCC) cell line HCA-1 and the human HCC cell lines JHH-7, Hep3B and human lung fibroblasts (HLF) were provided by Dr. Dan Duda (Massachusetts General Hospital, Boston). The human HCC cell line Mahlavu was provided by Dr. Han-Chung Wu (Academia Sinica, Taiwan). The human monocyte cell line THP-1 (ATCC® TIB-202™) was purchased from ATCC. HUVECs (BCRC H-UV001) were obtained from the Bioresource Collection and Research Center, Food Industry Research and Development Institute (Hsinchu, Taiwan). Cell lines were authenticated and tested for mycoplasma. HCA-1 and Mahlavu cells were cultured in high-glucose Dulbecco's modified Eagle's medium (DMEM); JHH-7 and HLF cells were cultured in DMEM/F12 medium; Hep3B cells were cultured in Minimum Essential Medium Alpha (MEMα) (Sigma-Aldrich, St. Louis, Mo.); THP-1 cells were maintained in RPMI-1640 (Corning, N.Y.). All media were supplemented with 10% fetal bovine serum (FBS) and 1% antibiotics (penicillin and streptomycin, HyClone, Logan, Utah). The HUVECs were cultured in Medium 199 (Sigma-Aldrich, St. Louis, Mo.) containing 20% FBS, ECGS (30 μg/mL), heparin (25 U/mL) and L-glutamine (2 mM). THP-1 cells were differentiated into macrophages by 72 h incubation with 20 ng/mL phorbol 12-myristate 13-acetate (PMA, Sigma-Aldrich, St. Louis, Mo.).
(§1) The procedure of reverse transcription quantitative real time PCR was as follows. Total RNA was extracted from HUVECs or flow-sorted tumor-associated macrophages using the RNeasy Mini Kit (Qiagen, Calif., USA). cDNAs were synthesized using the High-Capicity cDNA Reverse Transcription Kit (Applied Biosystems, Calif., USA). Primers specific for Arignase-1, CCL17, CCL22, IL10, MRC1, CXCL9, IL-1β, TNF-α, CXCL-11, NOS2, NOS3, Snail, Slug, Zeb1, Zeb2, Trim28, Fibronectin, Vimentin, E-cadherin, PD-L1, S1PR1, ANGPT1, PDGF-B, VEGFA, ANGPT2, EGF, IL-6, PPARγ, TGFβ, GAPDH and β-actin were used (Table 2), and relative gene expression was determined using Real-Time SYBR Green PCR Master Mix (Applied Biosystems, Calif., USA) on a QPCR System. The comparative threshold cycle method was used to calculate fold change in gene expression, which was normalized to β-actin.

HUVECs = experiment: Expression of pro-angiogenic and vessel stabilizing factors, RT-qPCR; assay type: cell-based, human; details: DNIC 1 μM, 24 h
Text: as §1
NO acts as a crucial modulator in regulating angiogenesis and maintaining the vasculature function in TME. […]
FIG. 5A is a data diagram of normalized tumor blood vessels in HCC by low-dose NanoNO. Expression of the pro-angiogenic and vessel stabilizing factors in HUVECs 24 h after treatment with DNIC (1 μM) measured by RT-qPCR. The results are expressed as the fold change relative to the untreated control group (n=9 biologically independent samples). […]

CL [4]: 0.46 mL/min/kg
Vss [4]: 0.0327 L/kg
t1/2 [4]: 1.27 h
SP-1 luciferase activity (SP1): significantly decreased
half-life of DNIC (DNIC destruction) [5]: 3.9 ± 1.5 h
SMILES: O=[N][Fe]1([N]=O)[S](CCO)[Fe]([N]=O)([N]=O)[S]1CCO [Free DNIC, Fe(μ-SCH2CH2OH)2(NO)4]
accumulation of DNIC in HCC tumors [1]: poorly delivered and accumulated in the tumor
in vitro release of NO [2]: proceeded at a rapid rate during the first two hours
EMT markers and E-cadherin expression (HCA-1 cells [3]): prevented the increase in epithelial-mesenchymal transition (EMT) markers
PD-L1 expression in murine and human HCC cells in vitro (PD-L1): significantly reduced PD-L1 expression
migration and invasion of HCA-1 cells (HCA-1 cells [6]): significantly inhibited the migration and invasion
macrophage polarization in vitro (Macrophage): did not directly affect macrophage polarization
Gene expression Arg-1 (M2 type) (Macrophage; DNIC 0.5 μM): 1.08 ± 0.26
Gene expression CCL-17 (M2 type) (Macrophage; DNIC 0.5 μM): 1.06 ± 0.13
Gene expression CCL-22 (M2 type) (Macrophage; DNIC 0.5 μM): 0.96 ± 0.11
Gene expression CXCL-9 (M1 type) (Macrophage; DNIC 0.5 μM): 1.22 ± 0.17
Gene expression CXCL-11 (M1 type) (Macrophage; DNIC 0.5 μM): 2.02 ± 0.79
Gene expression IL-1b (M1 type) (Macrophage; DNIC 0.5 μM): 1.13 ± 0.07
Gene expression IL-6 (M1 type) (Macrophage; DNIC 0.5 μM): 1.16 ± 0.03
Gene expression MRC1 (M2 type) (Macrophage; DNIC 0.5 μM): 1.00 ± 0.17
Gene expression PPARγ (M2 type) (Macrophage; DNIC 0.5 μM): 0.92 ± 0.05
Gene expression TGF-β (M2 type) (Macrophage; DNIC 0.5 μM): 1.11 ± 0.06
Gene expression TNF-α (M1 type) (Macrophage; DNIC 0.5 μM): 0.95 ± 0.08
Gene expression iNOS (M1 type) (Macrophage; DNIC 0.5 μM): 1.10 ± 0.35
Gene expression Arg-1 (M2 type) (Macrophage; DNIC 1 μM): 1.27 ± 0.28
Gene expression CCL-17 (M2 type) (Macrophage; DNIC 1 μM): 1.19 ± 0.27
Gene expression CCL-22 (M2 type) (Macrophage; DNIC 1 μM): 1.07 ± 0.22
Gene expression CXCL-9 (M1 type) (Macrophage; DNIC 1 μM): 1.22 ± 0.53
Gene expression CXCL-11 (M1 type) (Macrophage; DNIC 1 μM): 1.85 ± 0.72
Gene expression IL-1b (M1 type) (Macrophage; DNIC 1 μM): 1.21 ± 0.04
Gene expression IL-6 (M1 type) (Macrophage; DNIC 1 μM): 1.27 ± 0.08
Gene expression IL-10 (M2 type) (Macrophage; DNIC 1 μM): 1.22 ± 0.14
Gene expression MRC1 (M2 type) (Macrophage; DNIC 1 μM): 1.19 ± 0.16
Gene expression PPARγ (M2 type) (Macrophage; DNIC 1 μM): 0.91 ± 0.13
Gene expression TGF-β (M2 type) (Macrophage; DNIC 1 μM): 0.95 ± 0.03
Gene expression TNF-α (M1 type) (Macrophage; DNIC 1 μM): 0.94 ± 0.11
Gene expression iNOS (M1 type) (Macrophage; DNIC 1 μM): 0.93 ± 0.47
expression of pro-angiogenic genes (VEGF, ANGPT2, and EGF) (HUVECs): downregulated
expression of vessel maturation-related genes (S1PR1 and ANGPT1) (HUVECs): significantly upregulated
